Experimental data reported in the NIST ThermoML archive (doi:10.1007/s10765-010-0773-1).
Numbers after ± are expanded uncertainties.

Assay: xn = mol fraction of the nth substance listed
Settings: 101 kPa, Liquid; for mass density: Vibrating tube method; for speed of sound: Pulse-echo method

BrCBr [dibromomethane] + CCCCCCC
Settings	mass density [kg/m3]	speed of sound [m/s]
288.15 K, x1 = 0.1019	779.65 ± 0.27	–
288.15 K, x1 = 0.1838	861.49 ± 0.31	–
288.15 K, x1 = 0.2536	937.65 ± 0.37	–
288.15 K, x1 = 0.3055	998.83 ± 0.46	–
288.15 K, x1 = 0.4064	1130.32 ± 0.67	–
288.15 K, x1 = 0.5029	1274.13 ± 0.93	–
288.15 K, x1 = 0.6023	1444.97 ± 0.95	–
288.15 K, x1 = 0.6525	1541.56 ± 1	–
288.15 K, x1 = 0.7016	1644.24 ± 1.1	–
288.15 K, x1 = 0.8003	1878.69 ± 1.2	–
288.15 K, x1 = 0.8961	2149.52 ± 1.5	–
288.15 K, x1 = 1	2509.06 ± 1.9	–
292.87 K, x1 = 1	–	960.63 ± 1.5
292.88 K, x1 = 0.9019	–	946.13 ± 1.5
292.89 K, x1 = 0.1062	–	1104 ± 1.6
292.89 K, x1 = 0.2032	–	1066.3 ± 1.6
292.89 K, x1 = 0.304	–	1032.1 ± 1.6
292.9 K, x1 = 0.405	–	1002.4 ± 1.6
292.9 K, x1 = 0.4998	–	979.49 ± 1.5
292.91 K, x1 = 0.7043	–	946.92 ± 1.5
292.91 K, x1 = 0.8031	–	941.84 ± 1.5
292.92 K, x1 = 0.6048	–	959.47 ± 1.5
293.14 K, x1 = 0.2536	932.03 ± 0.37	–
293.14 K, x1 = 0.4064	1123.66 ± 0.65	–
293.14 K, x1 = 0.6023	1436.76 ± 0.93	–
293.14 K, x1 = 0.7016	1635.05 ± 1.1	–
293.15 K, x1 = 0.1019	774.91 ± 0.26	–
293.15 K, x1 = 0.1838	856.29 ± 0.31	–
293.15 K, x1 = 0.3055	992.87 ± 0.45	–
293.15 K, x1 = 0.5029	1266.74 ± 0.92	–
293.15 K, x1 = 0.6525	1532.85 ± 0.99	–
293.15 K, x1 = 0.8003	1868.4 ± 1.2	–
293.15 K, x1 = 0.8961	2138.01 ± 1.4	–
293.15 K, x1 = 1	2496.03 ± 1.9	–
298.14 K, x1 = 0.1838	851.06 ± 0.3	–
298.14 K, x1 = 0.2536	926.36 ± 0.37	–
298.14 K, x1 = 0.3055	986.88 ± 0.45	–
298.14 K, x1 = 0.6023	1428.45 ± 0.92	–
298.14 K, x1 = 0.7016	1625.79 ± 1.1	–
298.14 K, x1 = 0.8961	2126.46 ± 1.4	–
298.15 K, x1 = 0.1019	770.15 ± 0.26	–
298.15 K, x1 = 0.2032	–	1045.8 ± 1.6
298.15 K, x1 = 0.4064	1116.96 ± 0.65	–
298.15 K, x1 = 0.5029	1259.28 ± 0.91	–
298.15 K, x1 = 0.6525	1524.09 ± 0.98	–
298.15 K, x1 = 0.8003	1858.05 ± 1.2	–
298.15 K, x1 = 0.9019	–	931.96 ± 1.5
298.15 K, x1 = 1	2482.97 ± 1.8	947.15 ± 1.5
298.16 K, x1 = 0.1062	–	1082.4 ± 1.6
298.16 K, x1 = 0.304	–	1012.7 ± 1.6
298.17 K, x1 = 0.4998	–	962 ± 1.5
298.17 K, x1 = 0.8031	–	926.99 ± 1.5
298.18 K, x1 = 0.405	–	984.03 ± 1.5
298.18 K, x1 = 0.7043	–	931.29 ± 1.5
298.19 K, x1 = 0.6048	–	942.98 ± 1.5
303.11 K, x1 = 1	–	934.52 ± 1.5
303.13 K, x1 = 0.1062	–	1062.1 ± 1.6
303.13 K, x1 = 0.2032	–	1026.6 ± 1.6
303.13 K, x1 = 0.304	–	994.46 ± 1.5
303.13 K, x1 = 0.9019	–	918.63 ± 1.5
303.14 K, x1 = 0.6023	1420.11 ± 0.92	–
303.14 K, x1 = 0.8031	–	913 ± 1.5
303.15 K, x1 = 0.1019	765.35 ± 0.26	–
303.15 K, x1 = 0.1838	845.79 ± 0.3	–
303.15 K, x1 = 0.2536	920.67 ± 0.37	–
303.15 K, x1 = 0.3055	980.85 ± 0.45	–
303.15 K, x1 = 0.405	–	966.75 ± 1.5
303.15 K, x1 = 0.4064	1110.22 ± 0.64	–
303.15 K, x1 = 0.4998	–	945.56 ± 1.5
303.15 K, x1 = 0.5029	1251.79 ± 0.9	–
303.15 K, x1 = 0.6525	1515.27 ± 0.97	–
303.15 K, x1 = 0.7016	1616.48 ± 1	–
303.15 K, x1 = 0.7043	–	916.56 ± 1.5
303.15 K, x1 = 0.8003	1847.66 ± 1.2	–
303.15 K, x1 = 0.8961	2114.87 ± 1.4	–
303.15 K, x1 = 1	2469.88 ± 1.8	–
303.17 K, x1 = 0.6048	–	927.45 ± 1.5
308.1 K, x1 = 0.2032	–	1007.5 ± 1.6
308.1 K, x1 = 1	–	921.89 ± 1.5
308.11 K, x1 = 0.9019	–	905.33 ± 1.5
308.12 K, x1 = 0.1062	–	1041.9 ± 1.6
308.12 K, x1 = 0.304	–	976.3 ± 1.5
308.12 K, x1 = 0.4998	–	929.18 ± 1.5
308.13 K, x1 = 0.405	–	949.39 ± 1.5
308.13 K, x1 = 0.8031	–	899.01 ± 1.5
308.14 K, x1 = 0.6048	–	911.94 ± 1.5
308.14 K, x1 = 0.7043	–	901.84 ± 1.5
308.15 K, x1 = 0.1019	760.52 ± 0.26	–
308.15 K, x1 = 0.1838	840.49 ± 0.3	–
308.15 K, x1 = 0.2536	914.94 ± 0.37	–
308.15 K, x1 = 0.3055	974.78 ± 0.45	–
308.15 K, x1 = 0.4064	1103.44 ± 0.64	–
308.15 K, x1 = 0.5029	1244.25 ± 0.9	–
308.15 K, x1 = 0.6023	1411.72 ± 0.91	–
308.15 K, x1 = 0.6525	1506.41 ± 0.97	–
308.15 K, x1 = 0.7016	1607.12 ± 1	–
308.15 K, x1 = 0.8003	1837.22 ± 1.1	–
308.15 K, x1 = 0.8961	2103.24 ± 1.4	–
308.15 K, x1 = 1	2456.76 ± 1.8	–
313.14 K, x1 = 0.1019	755.67 ± 0.26	–
313.14 K, x1 = 0.5029	1236.67 ± 0.89	–
313.14 K, x1 = 0.6525	1497.49 ± 0.96	–
313.15 K, x1 = 0.1838	835.16 ± 0.3	–
313.15 K, x1 = 0.2536	909.16 ± 0.37	–
313.15 K, x1 = 0.3055	968.68 ± 0.45	–
313.15 K, x1 = 0.4064	1096.62 ± 0.63	–
313.15 K, x1 = 0.6023	1403.28 ± 0.9	–
313.15 K, x1 = 0.7016	1597.72 ± 1	–
313.15 K, x1 = 0.8003	1826.75 ± 1.1	–
313.15 K, x1 = 0.8961	2091.58 ± 1.4	–
313.15 K, x1 = 1	2443.59 ± 1.8	–
313.27 K, x1 = 1	–	908.83 ± 1.5
313.28 K, x1 = 0.2032	–	987.55 ± 1.5
313.28 K, x1 = 0.9019	–	891.54 ± 1.5
313.29 K, x1 = 0.1062	–	1021 ± 1.5
313.3 K, x1 = 0.304	–	957.58 ± 1.5
313.31 K, x1 = 0.405	–	931.52 ± 1.5
313.31 K, x1 = 0.4998	–	912.23 ± 1.5
313.31 K, x1 = 0.7043	–	886.55 ± 1.5
313.31 K, x1 = 0.8031	–	884.49 ± 1.5
313.32 K, x1 = 0.6048	–	895.85 ± 1.5
318.15 K, x1 = 0.1019	750.77 ± 0.26	–
318.15 K, x1 = 0.1838	829.78 ± 0.3	–
318.15 K, x1 = 0.2536	903.35 ± 0.36	–
318.15 K, x1 = 0.3055	962.53 ± 0.44	–
318.15 K, x1 = 0.4064	1089.75 ± 0.63	–
318.15 K, x1 = 0.5029	1229.04 ± 0.88	–
318.15 K, x1 = 0.6023	1394.79 ± 0.89	–
318.15 K, x1 = 0.6525	1488.53 ± 0.95	–
318.15 K, x1 = 0.7016	1588.27 ± 1	–
318.15 K, x1 = 0.8003	1816.27 ± 1.1	–
318.15 K, x1 = 0.8961	2079.95 ± 1.4	–
318.15 K, x1 = 1	2430.37 ± 1.8	–
